Experimental data as given in patent US20100234417A1, “THYROTROPIN RELEASING HORMONE RECEPTOR-OREXIN RECEPTOR HETERO-DIMERS/-OLIGOMERS” (DIMERIX BIOSCIENCE PTY LTD., priority 2006, published 2010).
Ends that are not written are not given here.

How the values were obtained:
[1] = system: thyrotropin releasing hormone receptor/orexin receptor hetero-dimer/-oligomer (OxR2 with HA-TRHR); assay: eBRET: OxR2/Rluc8 + barr2/Venus + HA-TRHR as IG3; type: cell-based; settings: FIG. 18
Protocol: Briefly, referring to FIGS. 1 to 3, the IGs are provided in the form of the two receptors (TRHR and OxR). One of the two is attached to an RC (IG1-RC1, IG3). A second IG (IG2-RC2) is derived from a molecule that interacts with the receptors upon ligand binding (e.g. beta-arrestin, or a mutant thereof).
Cells were seeded in 6-well plates at a density of approximately 630,000 cells/well (HEK293FT) or approximately 150,000 cells/well (COS-7) and maintained at 37° C., 5% CO2 in Complete Media (DMEM containing 0.3 mg/ml glutamine, 100 IU/ml penicillin and 100 μg/ml streptomycin (Gibco)) supplemented with 10% fetal calf serum (FCS; Gibco). […] Filtered light emissions were sequentially measured for 3-5 s in each of the ‘donor wavelength window’ (400-475 nm) and ‘acceptor wavelength window’ (>500 nm for EGFP or 520-540 nm for EYFP, Topaz (TYFP) or Venus). […] In this case, data are shown as ‘fluorescence/luminescence’ being the ratio of light emission through the ‘acceptor wavelength window’ over the 400-475 nm emission for a particular cell sample. Unless otherwise stated, BRET signals were measured in 96-well microplates.
Referring now to FIG. 18, eBRET signals were measured from cells transiently co-expressing OxR2/Rluc8 and barr2/Venus either with HA-TRHR or pcDNA3.

TRHR335 with OxR2 = assay: eBRET/BRET: truncated TRHR335/Rluc + tagged beta-arrestin + OxR2 as IG3; type: cell-based
Protocol: Cells were seeded in 6-well plates at a density of approximately 630,000 cells/well (HEK293FT) or approximately 150,000 cells/well (COS-7) and maintained at 37° C., 5% CO2 in Complete Media (DMEM containing 0.3 mg/ml glutamine, 100 IU/ml penicillin and 100 μg/ml streptomycin (Gibco)) supplemented with 10% fetal calf serum (FCS; Gibco). Transient transfections were carried out 24 h after seeding using GeneJuice (Novagen) or Metafectene (Biontex) according to manufacturer instructions. 24 h post-transfection, cells were washed with PBS, detached using 0.05% trypsin/0.53 mM EDTA, resuspended in HEPES-buffered phenol red free Complete Media containing 5% FCS and added to a poly-L-lysine-coated white microplate (Nunc). 48 h post-transfection, eBRET assays were carried out following pre-incubation of cells with EnduRen™ (Promega) at a final concentration of 30-40 μM, at 37° C., 5% CO2 for 2 h. For original BRET studies, the HEPES-buffered phenol red free Complete Media was replaced with PBS and coelenterazine h (Molecular Probes) added to a final concentration of 5 μM immediately prior to commencing the assay. […] Filtered light emissions were sequentially measured for 3-5 s in each of the ‘donor wavelength window’ (400-475 nm) and ‘acceptor wavelength window’ (>500 nm for EGFP or 520-540 nm for EYFP, Topaz (TYFP) or Venus). The BRET signal observed between interacting proteins is normalized by subtracting the background BRET ratio. […] In the following examples, the first calculation will be used, unless the signal is described as the ‘ligand-induced BRET ratio’. […] In this case, data are shown as ‘fluorescence/luminescence’ being the ratio of light emission through the ‘acceptor wavelength window’ over the 400-475 nm emission for a particular cell sample. Unless otherwise stated, BRET signals were measured in 96-well microplates.
Referring now to FIG. 9, eBRET signals were measured from cells transiently co-expressing TRHR335/Rluc and EGFP/barr1 with either OxR2 or TRHR.

[2] = TRHR335/Rluc + EGFP/barr1 + OxR2, FIG. 9

eBRET signal reached (ligand-induced BRET ratio) ([1]; gradual increase over time) | time to eBRET signal peak [1] [min] | Molecule | eBRET signal (TRHR335 with OxR2; [2]) | BRET signal (dose response) (TRHR335 with OxR2; TRHR335/Rluc + barr2/Venus + OxR2, FIG. 15) | time for eBRET signal to reach plateau (TRHR335 with OxR2; [2])
0.05 | – | NC(=O)[C@@H]1CCCN1C(=O)[C@H](Cc1cnc[nH]1)NC(=O)[C@@H]1CCC(=O)N1 [TRH, pGlu-His-Pro-NH2] | no eBRET signal above baseline | does not result in a BRET signal | –
– | ≤ 5 | OxA: orexin A; known orexin receptor modulator, used as IG3 ligand (modulator) (QPLPDCCRQKTCSCRLYELLHGAGNHAAGILTL; ends and bridges not checked; cysteine pairing not given here; UniProt O43612 34-66, looked up) | – | – | about 20 minutes
